Data: the NIST ThermoML archive (doi:10.1021/acs.jced.6b00178)

Tests used:
[1] = 100 kPa; for viscosity: Concentric cylinders viscometry; for mass density: Vibrating tube method
[2] = xn = mol fraction of the nth substance listed; conditions: 100 kPa, Liquid, x2 = 0; for viscosity: Concentric cylinders viscometry; for mass density: Vibrating tube method

CCCCn1cc[n+](C)c1.F[P-](F)(F)(F)(F)F [1-butyl-3-methylimidazolium hexafluorophosphate]
[1]
Conditions | mass density, Liquid [kg/m3] | mass density, Metastable liquid [kg/m3] | viscosity, Liquid [mPa·s] | viscosity, Metastable liquid [mPa·s]
283.15 K | – | 1379.9 | – | 794.33
288.15 K | 1376.5 | – | 557.27 | –
293.15 K | 1372 | – | 393.86 | –
298.15 K | 1367.6 | – | 285.02 | –
303.15 K | 1363.4 | – | 210.93 | –
308.15 K | 1359.2 | – | 159.46 | –
313.15 K | 1355.1 | – | 122.78 | –
318.15 K | 1351 | – | 96.28 | –
323.15 K | 1347 | – | 76.72 | –
328.15 K | 1342.9 | – | 62.04 | –
333.15 K | 1338.9 | – | 50.85 | –
338.15 K | 1334.9 | – | 42.2 | –
343.15 K | 1330.9 | – | 35.43 | –
348.15 K | 1326.9 | – | 30.04 | –
353.15 K | 1323 | – | 25.72 | –
358.15 K | 1319 | – | 22.22 | –
363.15 K | 1315.2 | – | 19.36 | –

CCCCn1cc[n+](C)c1.O=S(=O)([O-])C(F)(F)F [1-butyl-3-methylimidazolium trifluoromethanesulfonate]
[1]
Conditions | mass density, Liquid [kg/m3] | mass density, Metastable liquid [kg/m3] | viscosity, Liquid [mPa·s] | viscosity, Metastable liquid [mPa·s]
283.15 K | – | 1308.4 | – | 225.61
288.15 K | – | 1304.3 | – | 168.05
293.15 K | 1300.3 | – | 128.51 | –
298.15 K | 1296.3 | – | 99.14 | –
303.15 K | 1292.3 | – | 78.26 | –
308.15 K | 1288.4 | – | 62.76 | –
313.15 K | 1284.5 | – | 51.33 | –
318.15 K | 1280.6 | – | 42.1 | –
323.15 K | 1276.7 | – | 35.13 | –
328.15 K | 1272.8 | – | 29.63 | –
333.15 K | 1268.9 | – | 25.5 | –
338.15 K | 1265.1 | – | 21.72 | –
343.15 K | 1261.3 | – | 18.84 | –
348.15 K | 1257.5 | – | 16.47 | –
353.15 K | 1253.7 | – | 14.83 | –
358.15 K | 1249.9 | – | 12.86 | –
363.15 K | 1246.2 | – | 11.48 | –

CCCCn1cc[n+](C)c1.F[B-](F)(F)F [1-butyl-3-methylimidazolium tetrafluoroborate] + CCCC[n+]1ccn(C)c1.O=S(=O)([N-]S(=O)(=O)C(F)(F)F)C(F)(F)F
[2]
Conditions | mass density [kg/m3] | viscosity [mPa·s]
283.15 K | 1212.5 | 264.99
288.15 K | 1208.8 | 192.43
293.15 K | 1205.2 | 143.08
298.15 K | 1201.6 | 108.74
303.15 K | 1198 | 84.28
308.15 K | 1194.5 | 66.52
313.15 K | 1190.9 | 53.37
318.15 K | 1187.4 | 43.47
323.15 K | 1184 | 35.89
328.15 K | 1180.5 | 30.01
333.15 K | 1177 | 25.38
338.15 K | 1173.6 | 21.68
343.15 K | 1170.2 | 18.7
348.15 K | 1166.8 | 16.26
353.15 K | 1163.4 | 14.26
358.15 K | 1160.1 | 12.59
363.15 K | 1156.8 | 11.2
